From patent publication US5278181A, “Soluble alkyl[5-[amino (phenyl)methyl]-1H-benzimidazol-2-yl] carbamate anthelmintics” (priority 1992, dated 1994)
Where “and” joins values, the source holds several entries; their conditions need not be identical. Equal entries are not always repeated.

Legend:
[1] = tested on: Acanthocheilonema viteae; assay: Antifilarial dual infection screen in jirds: adult A. viteae burden and microfilaremia; format: in vivo, in Mongolian jirds
Text: (§1) Dual infections of the filarial worms Brugia pahangi and Acanthocheilonema viteae in jirds are used routinely for antifilarial screening [McCall, J. W., McTier, T. L., and Rowan, S. J., "In vivo models for evaluating potential antifilarial agents", Onchocerciasis/Filariasis (Proceedings of a Symposium sponsored by the World Health Organization), Kalamazoo, Mich., Apr. 8-10, 23-24 (1986)].
For this dual infection screen, male Mongolian jirds weighing 50-60 g are infected SC with 10 (5 male and 5 female) adult A. viteae, transplanted under sodium pentobarbital anesthesia (48 mg/kg) from donor hamsters infected SC 8 weeks earlier. Two weeks later, 20 (10 male and 10 female) adult B. pahangi, taken from donor jirds infected IP 8 weeks earlier, are transplanted into the peritoneal cavity of each jird under sodium pentobarbital anesthesia. After an additional week, when the jirds have acceptable levels of microfilaremia, they are randomly allocated to treatment groups of 3 animals each and a nontreated group of 4-6 animals. Microfilaremia is determined on days 0 (just prior to the first dose), 4 and 56 post-treatment. Unless indicated otherwise, compounds are suspended in hydroxyethylcellulose (0.5%) - Tween 80 (0.1%) and administered SC at 100 mg/kg/day for 5 consecutive days. All jirds are killed on day 56 post-treatment to determine the effects of drugs on adults of A. viteae and B. pahangi. Live worms are identified as to species, noted as to sex, and counted. The number of dead and/or encapsulated worms is also recorded. A reduction of ≥80% in microfilaremia or ≥50% in adult worm burden (either species) compared with pre-treatment microfilaremia or non-treated control worm burden, respectively, is considered to be significant. For secondary testing with this dual infection screen, groups of 7 animals each are used. For oral dosing, drugs are dissolved or suspended in hydroxyethylcellulose - Tween 80 and administered by gavage.

[2] = tested on: Brugia pahangi; assay: Antifilarial effect in beagle dogs infected with Brugia pahangi; format: in vivo; conditions: for Dogs cured/Treated / Percent reduction Macrofilariae / Percent reduction Microfilariae: PO
Text: The infective larvae of B. pahangi were produced and collected as described by McCall [J. Georgia Entomol. Soc. 16:283-293, (1981)]. The dogs were given 100 L3 of B. pahangi by subcutaneous injection (SC) into the dorsum of each hind paw or 200 L3 in one hind paw (i.e., a total inoculum of 200 L3 per dog).
The dogs were randomly allocated to treatment groups containing 4 dogs. The dogs were divided by sex and ranked by declining baseline microfilarial counts (average count based on the 5 bleedings made before the day of treatment). Those dogs which were amicrofilaremic or had very few microfilariae were excluded from the trial. Of the remaining dogs, those with the highest baseline microfilaremias were assigned to seven-dog replicates. The sex of the dogs within three of the replicates was the same, while the fourth replicate contained dogs of both sexes. The dogs of a given sex with the highest levels of microfilaremia were placed in the same replicate. The next set of dogs of that sex with the next highest levels of microfilaremia was assigned to the next replicate, and so on until all of the replicates were filled. The dogs within each complete replicate were assigned to test groups using a table of random numbers [Ostle and Mensing, Statistics in Research, Third Edition, Iowa State University Press, Ames, Iowa, pp. 560-563, (1975)]. The test groups were likewise assigned to either control or treatment groups using the table of random numbers.
The first day of treatment, day 0, was approximately 144 days after infection. Drugs were administered orally as a 10% suspension in HEC-Tween 80 or in soft gelatin capsules. Drugs were administered intramuscularly or subcutaneously as a 10% suspension in peanut oil or in HEC-Tween 80. Groups of four dogs served in sham-treated controls in each experiment. All of the treatments were given by IM injection in the dorsal lumbar muscles.
All dogs were observed frequently during each day of treatment and daily throughout the remainder of the study for any signs of reactions. In addition, the hair was shaved at the injection sites to facilitate the observation of possible tissue irritation resulting from treatment.
Blood was collected from each dog on days 51, 43, 27, 19, and 5 before treatment to determine baseline microfilaremias and allocate the dogs to treatment groups. Blood was then collected from all dogs on the day before treatment on day -1, on days 7, 10, 14, 21, 28, 35, 42, 49, and 56 days after treatment. All bleedings were done at approximately the same time of day (11:00-12:00 E.S.T.). Two 20-μl blood films were prepared from each sample and stained with giemsa. Microfilarial counts were made from the 2 blood films.
The dogs were euthanized for necropsy either two or six months after the first day of treatment. Just prior to euthanasia, the dogs were given a subcutaneous injection (SC) of a two percent solution of Evans blue into the dorsum of both hind paws in order to help delineate the lymphatic vessels. This was followed at least 30 minutes later with a lethal dose of Fatal-Plus® (Vortech Pharmaceuticals, Dearborn, Mich.). A limited necropsy was performed on each dog with examination of the afferent and efferent lymphatics of both hindlimbs and the popliteal, inguinal, internal and external iliac, and lumbar lymph nodes. Any live or dead worms seen were removed. These vessels and lymph nodes were removed, teased, and soaked overnight in normal saline to allow any worms to migrate out of the tissues. The condition of the worms, their sex and number, and the location from which they were recovered were noted.
Effectiveness against the adult parasites was determined as follows: [formula] Effectiveness against microfilariae for a given day after treatment was determined as follows: [formula]
The adult B. pahangi counts and the microfilarial counts were compared using a one way analysis of variance (ANOVA). […]

[3] = tested on: B. pahangi and A. viteae; assay: Antifilarial activity in jirds, dual infection, summary in words; format: in vivo; conditions: both oral and parenteral routes
Text: as §1
For this dual infection screen, male Mongolian jirds weighing 50-60 g are infected SC with 10 (5 male and 5 female) adult A. viteae, transplanted under sodium pentobarbital anesthesia (48 mg/kg) from donor hamsters infected SC 8 weeks earlier. Two weeks later, 20 (10 male and 10 female) adult B. pahangi, taken from donor jirds infected IP 8 weeks earlier, are transplanted into the peritoneal cavity of each jird under sodium pentobarbital anesthesia. After an additional week, when the jirds have acceptable levels of microfilaremia, they are randomly allocated to treatment groups of 3 animals each and a nontreated group of 4-6 animals. Microfilaremia is determined on days 0 (just prior to the first dose), 4 and 56 post-treatment. […] Live worms are identified as to species, noted as to sex, and counted. The number of dead and/or encapsulated worms is also recorded. […]

[4] = physchem; conditions: water
[5] = 50(34 free base) mg/kg/day bid × 5, gelatin capsules, not significantly different from control
[6] = 100(78 free base) mg/kg/day bid × 5, gelatin capsules
[7] = 200(155 free base) mg/kg/day bid × 5, HEC-Tween 80
[8] = 200(155 free base) mg/kg/day bid × 5, gelatin capsules

Compound: COC(=O)Nc1nc2cc(C(N)c3ccc(F)cc3)ccc2[nH]1.Cl.Cl (racemic) [Example 2, Methyl (±)-[5-[Amino(4Fluorophenyl)Methyl]-1H-Benzimidazol-2-yl]Carbamate Dihy drochloride Salt]
- % Macrofilarial reduction, A. viteae ([1]; 1.56 mg/kg/day × 5 days, SC, day 56): 48%
- % Microfilarial reduction, A. viteae, Day 4 ([1]; 3.13 mg/kg/day × 5 days, SC): 88%
- % Microfilarial reduction, A. viteae, Day 56 ([1]; 3.13 mg/kg/day × 5 days, SC): 100%
- % Macrofilarial reduction, A. viteae ([1]; 3.13 mg/kg/day × 5 days, SC, day 56, 3.13 mg/kg/day): 74% and 69%
- % Microfilarial reduction, A. viteae, Day 4 ([1]; 6.25 mg/kg/day × 5 days, SC): 83%
- % Microfilarial reduction, A. viteae, Day 56 ([1]; 6.25 mg/kg/day × 5 days, SC): 100%
- % Macrofilarial reduction, A. viteae ([1]; 6.25 mg/kg/day × 5 days, SC, day 56): 100%
- % Macrofilarial reduction, A. viteae ([1]; 12.5 mg/kg/day × 1 day, SC, day 56): 83%
- % Microfilarial reduction, A. viteae, Day 4 ([1]; 12.5 mg/kg/day × 5 days, SC): 80%
- % Microfilarial reduction, A. viteae, Day 56 ([1]; 12.5 mg/kg/day × 5 days, SC): 100%
- % Macrofilarial reduction, A. viteae ([1]; 12.5 mg/kg/day × 5 days, SC, day 56): 100%
- % Macrofilarial reduction, A. viteae ([1]; 25 mg/kg/day × 1 day, SC, day 56): 96%
- % Macrofilarial reduction, A. viteae ([1]; 25 mg/kg/day × 5 days, SC, day 56): 100%
- % Macrofilarial reduction, A. viteae ([1]; 75 mg/kg/day × 5 days, oral, day 56): 83%
- % Microfilarial reduction, A. viteae, Day 4 ([1]; 100 mg/kg/day × 5 days, oral): 50%
- % Microfilarial reduction, A. viteae, Day 56 ([1]; 100 mg/kg/day × 5 days, oral): 75%
- % Macrofilarial reduction, A. viteae ([1]; 100 mg/kg/day × 5 days, oral, day 56): 80%
- Dogs cured/Treated ([2]; 50(34 free base) mg/kg/day bid × 5, gelatin capsules): 0/4
- Percent reduction Macrofilariae [2, 5]: 71%
- Percent reduction Microfilariae [2, 5]: 89%
- Dogs cured/Treated [2, 6]: 0/4
- Percent reduction Microfilariae [2, 6]: 86%
- Percent reduction Macrofilariae ([2]; 100(78 free base) mg/kg/day bid × 5, gelatin capsules, not significantly different from control): 23%
- Percent reduction Macrofilariae ([2]; 200(155 free base) mg/kg/day bid × 1, HEC-Tween 80): 97%
- Dogs cured/Treated ([2]; 200(155 free base) mg/kg/day bid × 1, HEC-Tween 80, necropsied 6 months): 1/3
- Percent reduction Microfilariae ([2]; 200(155 free base) mg/kg/day bid × 1, HEC-Tween 80, not significantly different from control): 77%
- Percent reduction Macrofilariae ([2]; 200(155 free base) mg/kg/day bid × 3, HEC-Tween 80): 90%
- Dogs cured/Treated ([2]; 200(155 free base) mg/kg/day bid × 3, HEC-Tween 80, necropsied 6 months): 0/3
- Percent reduction Microfilariae ([2]; 200(155 free base) mg/kg/day bid × 3, HEC-Tween 80, not significantly different from control): 71%
- Percent reduction Macrofilariae [2, 7]: 100%
- Percent reduction Microfilariae [2, 7]: 100%
- Dogs cured/Treated ([2]; 200(155 free base) mg/kg/day bid × 5, HEC-Tween 80, necropsied 6 months): 3/3
- Percent reduction Macrofilariae [2, 8]: 99%
- Percent reduction Microfilariae [2, 8]: 100%
- Dogs cured/Treated ([2]; 200(155 free base) mg/kg/day bid × 5, gelatin capsules, necropsied 6 months): 5/6
- Percent reduction Macrofilariae ([2]; 200(155 free base) mg/kg/day × 1, HEC-Tween 80): 79%
- Dogs cured/Treated ([2]; 200(155 free base) mg/kg/day × 1, HEC-Tween 80, necropsied 6 months): 1/3
- Percent reduction Microfilariae ([2]; 200(155 free base) mg/kg/day × 1, HEC-Tween 80, not significantly different from control): 74%
- Percent reduction Macrofilariae ([2]; 200(155 free base) mg/kg/day × 3, HEC-Tween 80): 97%
- Dogs cured/Treated ([2]; 200(155 free base) mg/kg/day × 3, HEC-Tween 80, necropsied 6 months): 1/3
- Percent reduction Microfilariae ([2]; 200(155 free base) mg/kg/day × 3, HEC-Tween 80, not significantly different from control): 78%
- cure of B. pahangi infections ([2]; oral, 200 mg/kg/day (155 base equivalent) for 1, 3 or 5 days): cured dogs of B. pahangi infections
- antifilarial activity in jirds [3]: outstanding antifilarial activity
- solubility [4]: > 50 mg/mL
